# Measured values taken from US12583841B2, “Tetrahydropyrrolocyclic compound and application thereof” (Breakthrough Pharmaceuticals Inc., priority 2021, dated 2026).
# Tests used:
# OX2R = biological target: T1, OX2R (Homo sapiens, UniProt O43614); test: FLIPR intracellular calcium antagonism test, HEK293-OX2R cells; type: cell-based; conditions: Orexin A at EC70, read-out: hOX2R IC50
# T1 construct: expressed in transfected cells
# T1 sequence (O43614 1-444): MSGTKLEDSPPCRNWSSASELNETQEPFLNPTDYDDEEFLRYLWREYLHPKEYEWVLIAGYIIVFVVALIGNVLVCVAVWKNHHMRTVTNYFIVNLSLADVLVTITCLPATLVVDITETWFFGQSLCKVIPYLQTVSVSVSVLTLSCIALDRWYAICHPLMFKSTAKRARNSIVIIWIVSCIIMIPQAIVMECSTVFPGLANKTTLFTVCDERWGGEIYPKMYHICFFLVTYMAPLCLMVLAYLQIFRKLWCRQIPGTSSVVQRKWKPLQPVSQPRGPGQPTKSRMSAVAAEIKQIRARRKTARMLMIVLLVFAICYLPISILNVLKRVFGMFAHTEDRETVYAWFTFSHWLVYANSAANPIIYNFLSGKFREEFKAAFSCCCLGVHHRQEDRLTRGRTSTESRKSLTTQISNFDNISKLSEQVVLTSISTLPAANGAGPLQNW
# Experimental: (§1) The change of intracellular calcium signal was detected by FLIPR, and the antagonism of the compounds on OX1R and OX2R receptors was evaluated by using IC50 value of the compounds as an index.
# (§2) • Cell lines: Transfected HEK293-OX1R and HEK293-OX2R stable cell lines • HEK293-OX1R cell culture medium (DMEM, Invitrogen #11960-044, 10% serum Gibco #10099141, L-Glutamine 1×, Gibco #25030, sodium pyruvate 1×, Gibco #11360, Geneticin 300 μg/mL, Gibco #10131) • HEK293-OX2R cell culture medium (DMEM, Invitrogen #11960-044, 10% serum Gibco #10099141, L-Glutamine 1×, Gibco #25030, sodium pyruvate 1×, Gibco #11360, Geneticin 300 μg/mL, Gibco #10131, Blasticin 2 μg/mL, Invitrogen #R21001)
# (§3) Experimental Steps and Methods: • a) Cell seeding (HEK293-OX1R and HEK293-OX2R cells) • 1) preheating the culture medium, trypsin and DPBS under water bath at 37° C.; pipetting and removing the medium of cell culture and washing same with 10 mL of DPBS; • 2) adding the preheated trypsin to a culture flask, rotating the culture flask so that the trypsin evenly covered the culture flask, and putting the culture flask in a 37° C., 5% CO2 incubator for digestion for 1-2 min; • 3) suspending the cells with 10-15 mL of medium for each T150 and centrifuging at 800 rpm for 5 min; resuspending the cells with 10 mL of medium, pipetting 1 mL of the cell suspension and counting with Vi-cell; • 4) diluting OX1R cells with medium to 5×10^5 cells/mL, and diluting OX2R cells with medium to 4×10^5 cells/mL, and adding the diluted cells to 384 plate (Greiner.781946) with a multi-channel pipette (50 μL/well, 25000 cells/well for OX1R cells, 20000 cells/well for OX2R cells); placing the cell plate in a 37° C., 5% CO2 incubator overnight. • b) Compound loading: • 1) diluting the compound to 20 mM with DMSO, 3-fold dilution, 8 gradients, duplicate wells, and adding same to a compound plate with an Echo liquid handler; then adding 20 μL of buffer to maintain the final concentration of DMSO of 0.1%. • c) FLIPR experiment: • 1) washing off the cell culture medium in the 384 plate with a vacuum pump, adding […] Direct fluorescent dye, incubating in 37° C., 5% CO2 incubator for 1 h, and balancing at room temperature for another 10 min. • 2) EC50 test: manually diluting Orexin A on ice, 3-fold dilution, 8 gradients, duplicate wells; preparing a DMSO plate and keep the DMSO concentration to be 0.5%; putting the cell plate, OrexinA plate, and DMSO plate in FLIPR respectively, and reading the fluorescence value. • 3) calculating the EC70 value based on the EC50 value of Orexin A; preparing a 5×EC70 solution, adding same to 384 compound plate with a multi-channel pipette, and storing on ice; • 4) putting the compound plate, 5×EC70 plate, cell plate, and FLIPR tip in sequence in FLIPR, running the program, and reading the fluorescence value. • d) Data analyzing: using Prism5.0 to analyze the data, and calculating the IC50 value of the compound.
# OX1R = biological target: T2, OX1R (Homo sapiens, UniProt O43613); test: FLIPR intracellular calcium antagonism test, HEK293-OX1R cells; type: cell-based; conditions: Orexin A at EC70, read-out: hOXIR IC50
# T2 construct: expressed in transfected cells
# T2 sequence (O43613 1-425): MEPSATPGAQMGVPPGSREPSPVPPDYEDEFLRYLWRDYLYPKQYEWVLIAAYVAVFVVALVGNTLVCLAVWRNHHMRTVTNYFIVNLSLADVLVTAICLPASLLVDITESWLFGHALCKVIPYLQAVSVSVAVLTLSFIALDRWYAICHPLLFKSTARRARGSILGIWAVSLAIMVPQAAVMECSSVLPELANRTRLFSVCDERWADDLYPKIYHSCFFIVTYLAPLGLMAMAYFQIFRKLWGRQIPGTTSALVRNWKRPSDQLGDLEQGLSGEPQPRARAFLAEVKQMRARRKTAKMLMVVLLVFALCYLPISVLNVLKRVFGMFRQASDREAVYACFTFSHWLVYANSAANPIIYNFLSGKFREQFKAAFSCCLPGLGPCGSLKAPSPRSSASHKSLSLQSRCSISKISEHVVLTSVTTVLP
# Experimental: as §1, §2, §3
Compound,IC50 (OX2R) [µM],IC50 (OX1R) [µM]
COc1ccc2nc([C@@H]3[C@H]4C[C@H]4CN3C(=O)c3cc(C)ccc3-n3nccn3)[nH]c2c1 [Compound 5],0.096,0.337
COc1ccc2nc([C@@H]3C[C@H]4C[C@H]4N3C(=O)c3ccc(F)cc3-n3nccn3)[nH]c2c1 [Compound 9],0.042,3.17
COc1ccc2nc([C@@H]3[C@H]4C[C@H]4CN3C(=O)c3c(F)cccc3-n3nccn3)[nH]c2c1 [Compound 6],0.299,1.42
COc1ccc(-n2nccn2)c(C(=O)N2C[C@@H]3C[C@@H]3[C@H]2c2nc3ccc(OC)cc3[nH]2)c1 [Compound 4],0.064,0.462
COc1ccc2[nH]c([C@@H]3C[C@H]4C[C@H]4N3C(=O)c3cc(C)ccc3-c3ncccn3)nc2c1 [Compound 13],0.06,2.44
COc1ccc2[nH]c([C@@H]3C[C@H]4C[C@H]4N3C(=O)c3c(F)cccc3-n3nccn3)nc2c1 [Compound 12],0.081,1.28
COc1ccc2nc([C@@H]3C[C@H]4C[C@H]4N3C(=O)c3ccccc3-n3nccn3)[nH]c2c1 [Compound 2],0.072,> 10

# Now those with a lower IC50 (OX2R), led by results:
IC50 (OX2R) [µM],IC50 (OX1R) [µM],Compound
0.03,1.04,COc1ccc2[nH]c([C@@H]3C[C@H]4C[C@H]4N3C(=O)c3cc(Cl)ccc3-n3nccn3)nc2c1 [Compound 14]
0.033,3.6,COc1ccc2[nH]c([C@@H]3C[C@H]4C[C@H]4N3C(=O)c3cc(F)ccc3-n3nccn3)nc2c1 [Compound 11]
0.025,> 10,COc1ccc2nc([C@@H]3[C@H]4C[C@H]4CN3C(=O)c3ccccc3-n3nccn3)[nH]c2c1 [Compound 1]
0.017,0.71,COc1ccc2[nH]c([C@@H]3C[C@H]4C[C@H]4N3C(=O)c3ccc(C)cc3-n3nccn3)nc2c1 [Compound 10]
0.024,0.877,COc1ccc2nc([C@@H]3C[C@H]4C[C@H]4N3C(=O)c3cc(C)ccc3-n3nccn3)[nH]c2c1 [Compound 7]
